Measurements as given in patent publication US20200230205A1, “COMPOSITIONS AND METHODS FOR TREATING MYELIN DISORDERS” (CASE WESTERN RESERVE UNIVERSITY, priority 2017, published 2020).

Tests used:
[1] = system: LPC-demyelinated mice; assay: Lysolecithin (LPC)-induced focal demyelination of the spinal cord in mice; assay type: in vivo, mouse
Method: 12-week-old C57BL/6 male mice were anaesthetized using isoflurane and a laminectomy was performed. […] of 1% LPC was infused into the dorsal column between T11 and T12 spinal cord at a rate of 0.25 μl/min. The needle was removed after a delay of 5 min to minimize back flow and the lesion closed. […] The mice were euthanized at day 7, 14 and 21 after the laminectomy separately. Spinal cords were dissected for further western blot, histology and ultrastructural analysis. Control animals received an equivalent injection of saline, and tissues were collected according to the same paradigm. […] Lesion sizes were determined by staining of serial sections with eriochrome cyanine staining.
For spinal cord sections, 20 μm coronal sections were incubated in LFB solution in 56° C. overnight and then rinsed sequentially with 95% alcohol and distilled water. The sections were then in 0.1% lithium carbonate solution and followed dehydration with a series of gradated ethanol, cleared with Histoclear and mounted. A set of serial matched sections were imaged and analyzed. Images (5 to 6 sections/animal) were captured under light microscope. The demyelinated areas (lack of LFB staining) were quantified using ImageJ software. For EAE sections, demyelinated areas were measured and represented as a percentage of total area of spinal cord. For sections of LPC model, lesion volumes were calculated by the lesion area from serial sections throughout the entire lesion based on the equation for volume of cylinder (V=lesion area×length of lesion).
Mice were anesthetized with avertin and perfusion with PBS and 4% paraformaldehyde (PFA). Brain or spinal cord were dissected and post-fixed in 4% PFA overnight at 4° C. and equilibrated in 20% sucrose. 20 μm-thick sections were pretreated with Reveal Decloaker Solution (RV 1000M, Biocare Medical) for antigen retrieval according to the manufacturer's instructions. […] For each staining, at least 3 individual animals/group were examined and images were captured with a Leica DFC500 fluorescence microscope. Staining was quantified using Image J software (US National Instisutes of Health, USA). Fluorescence intensity was calculated as percentages of the mean value of the naïve controls.
For ultrastructural analyses of myelination, anesthetized animals were perfused with 2% glutaraldehyde/4% paraformaldehyde in 0.1 M sodium carcodylate buffer, PH7.4 (Electron Microscopy Sciences). Lesioned areas of the LPC or EAE-induced spinal cords from ISP-treated or control animals were dissected and post-fixed in 1% OsO4 for 2 hrs. Coronal sections ([…]) of spinal cord or brain containing corpus callosum were prepared (Leica, Vibratome), dehydrated, stained with saturated uranyl acetate and embedded in a Poly/Bed812 resin (Polysciences Inc.). The 1 μm-thick sections were cut and stained with toluidine blue, and matched areas were selected for EM analysis. For ultrastructure analysis, ultrathin sections (0.1 μm) were cut and visualized using an electron microscope (JEOL100CX) at 80 kV. G-ratios were calculated from at least 50-100 randomly selected myelinated axons by measuring the myelin thickness of the inner and outer diameter of the myelin sheath.

[2] = system: oligodendrocyte progenitor cells (OPCs); assay: OPC maturation and process outgrowth on CSPGs (MBP footprint); assay type: cell-based, mouse
Method: OPCs were prepared from newborn C57BL/6 mice as described previously (Luo, F., et al. The Activators of Cyclin-Dependent Kinase 5 p35 and p39 Are Essential for Oligodendrocyte Maturation, Process Formation, and Myelination. J. Neurosci. 36, 3024-3037 (2016).). Cell culture plates were pre-coated with IgM (10 jpg/ml, Millipore) in 50 mM Tris-HCl and followed primary mouse antibody A2B5. Dissociated cells were incubated in the pre-coated culture dishes for 30 min at 37° C. and then non-adherent cells were gently removed. A2B5+ OPCs were released by 0.05% trypsin in DMEM at a purify of ˜96%. Purified OPC cells were expanded in DMEM/F12 medium supplemented with N2, 20 ng/ml PDGF, 20 ng/mlFGF, 5 ng/mlNT-3, 10 ng/ml CNTF, Glutamine (200 mM).
For MMP-2/04 staining, OPCs were plated onto 24-well coverslips that were precoated with PLL, 1 μg/mL laminin, and 2 μg/mL aggrecan and incubated with vehicle or 2.5 μM ISP for 2 days at 37° C. Cultured OPC or OL cells were fixed in 4% PFA and followed blocking in PBST solution (10% normal goat serum and 0.2% Triton-X100 in PBS). Diluted primary antibodies were incubated with samples overnight at 4° C. and followed by appropriate secondary antibody goat anti-mouse or anti-rabbit IgM or IgG conjugated with Alexa Fluor 488 or 594 (1:500, Invitrogen). […]

[3] = 14 dpl, given together with ISP, vs LPC+ISP
[4] = 7 dpl, lesion epicenter, ISP started immediately

Compound | CS56 immunoreactivity [1, 3] | Olig2+ OPCs in the lesion epicenter [1, 3] | lesion volume, eriochrome cyanine myelin staining ([1]; 18 dpl, MMP-2 inhibition without ISP, vs vehicle control) | effect on ISP-enhanced remyelination (lesion volume) ([1]; 18 dpl, given together with ISP) | MBP footprint ([2]; 100 nM OA-Hy, OPCs on aggrecan/laminin, vs ISP treatment alone) | Olig2+/Ki67+ cells ([1]; 7 dpl vs vehicle) | percentage of Olig2+ OPCs in lesions ([1]; 7 dpl vs vehicle) | lesion volume (LFB) ([1]; 7 dpl, ISP 20 μg/day subcutaneous from 1 day post LPC, vehicle 1.508±0.069) [mm^3] | CSPG expression (CS56, Cat301) ([1]; 7 dpl, ISP started immediately upon LPC injection, 7 days) | MBP myelin protein expression vs control [1, 4] | activated microglia (Iba1) vs control [1, 4] | reactive astrocytes (GFAP) vs control [1, 4] | MBP expression, western blot ([1]; 14 dpl) | CSPGs (CS56 and Cat301) immunostaining ([1]; 14 dpl vs controls) | lesion volume (LFB) ([1]; 14 dpl, vehicle 1.035±0.06) [mm^3] | lesion volume (LFB) ([1]; 21 dpl, vehicle 0.738±0.027) [mm^3] | percentage of CC1+ oligodendrocytes in lesions ([1]; LPC-injected animals, 14 dpl) | MMP-2 expression in the LPC-injected site (immunohistochemistry, western blot) ([1]; spinal cord, vs LPC vehicle) | process outgrowth and maturation of OPCs grown on CSPGs (MBP+ footprints) ([2]; ISP vs vehicle on CSPGs)
CCCCCCCC/C=C\CCCCCCCC(=O)NO [OA-Hy, reference compound] | concomitant increase in CS56 immunoreactivity | decreased accumulation | increased the lesion volume | attenuated the enhanced remyelinating effects of ISP | decreased MBP footprint significantly |  |  |  |  |  |  |  |  |  |  |  |  |  | 
GRKKRRQRRRCDMAEHMERLKANDSLKLSQEYESI [ISP] |  |  |  |  |  | no differences | significantly increased | 1.535±0.058 | significantly reduced | no change | no change | no change | increased expression of MBP | quicker reduction of CSPGs | 0.613±0.043 | 0.2±0.041 | significantly enhanced | markedly enhanced | largely rescued
